The experiment concerns the target T1, Human Polθ polymerase domain (aa1820-2590) (Homo sapiens, UniProt O75417).
T1 construct: Human Polθ polymerase domain (aa1820-2590) was expressed in E. coli; made in house; host or cells: E. coli
T1 sequence (O75417 1820-2590): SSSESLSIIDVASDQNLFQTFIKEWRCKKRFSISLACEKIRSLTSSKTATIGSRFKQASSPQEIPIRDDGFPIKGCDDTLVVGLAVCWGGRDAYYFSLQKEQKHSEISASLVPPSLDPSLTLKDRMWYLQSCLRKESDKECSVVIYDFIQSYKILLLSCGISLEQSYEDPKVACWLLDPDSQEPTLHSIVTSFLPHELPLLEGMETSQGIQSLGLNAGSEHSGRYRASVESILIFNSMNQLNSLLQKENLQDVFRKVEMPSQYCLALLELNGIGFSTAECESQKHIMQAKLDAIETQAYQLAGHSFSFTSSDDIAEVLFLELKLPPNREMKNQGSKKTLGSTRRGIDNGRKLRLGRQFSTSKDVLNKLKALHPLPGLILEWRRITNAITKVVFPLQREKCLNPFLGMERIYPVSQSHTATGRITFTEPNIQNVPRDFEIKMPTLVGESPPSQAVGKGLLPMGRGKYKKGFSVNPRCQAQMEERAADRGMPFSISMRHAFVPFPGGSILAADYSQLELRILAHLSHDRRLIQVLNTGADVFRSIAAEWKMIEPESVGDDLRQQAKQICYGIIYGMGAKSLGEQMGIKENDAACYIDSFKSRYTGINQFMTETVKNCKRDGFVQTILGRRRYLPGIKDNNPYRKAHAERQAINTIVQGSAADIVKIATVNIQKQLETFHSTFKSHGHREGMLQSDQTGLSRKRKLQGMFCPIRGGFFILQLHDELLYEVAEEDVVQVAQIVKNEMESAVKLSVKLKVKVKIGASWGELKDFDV
The experiment in a line: Polθ Polymerase Domain Kinact/KI Assay (PicoGreen). The format is biochemical. The conditions noted are these: 0.8 nM Polθ, 100 nM DNA substrate, kobs vs [I] fit for 2-step covalent inhibitor. A digest of the protocol: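 PicoGreen fluorescence read-out of primer extension; progress curves per inhibitor concentration fitted for kobs, then kobs vs [I] fitted to a two-step covalent model to give Kinact and KI. Conditions: 0.8 nM enzyme, 100 nM DNA substrate, […].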

For the molecule `C=CC(=O)N1Cc2nc(CN3C[C@H]4CC(=O)N(c5cc(C(F)(F)F)cc(C)n5)[C@@H]4C(=O)N(C)c4cccc(C)c43)cn2C[C@@H]1C` (racemic) [Example 206b, (3aR,11aS)-5-(((S/R)-7-acryloyl-6-methyl-5,6,7,8-tetrahydroimidazo [1,2-a]pyrazin-2-yl)methyl)-6,10-dimethyl-1-(6-methyl-4-(trifluoromethyl)pyridin-2-yl)-1,3a,4,5,10,11a-hexahydro-2H-benzo[b]pyrrolo [2,3-f][1,4]diazocine-2,11(3H)-dione], the Kinact/Kl came to 4.19e+06 M⁻¹ s⁻¹.
As for `Cc1cc(C(F)(F)F)cc(N2C(=O)C[C@@H]3CN(Cc4ccc5c(c4)[C@H](CC#N)N(C(=O)/C=C/CN(C)C)C5)c4c(Cl)cccc4N(C)C(=O)[C@H]32)n1` (racemic) [Example 311b, 2-((S/R)-6-(((3aR,11aS)-6-chloro-10-methyl-1-(6-methyl-4-(trifluoromethyl)pyridin-2-yl)-2,11-dioxo-1,2,3,3a,4,10,11,11a-octahydro-5H-benzo[b]pyrrolo[2,3-f][1,4]diazocin-5-yl)methyl)-2-((E)-4-(dimethylamino)but-2-enoyl)isoindolin-1-yl)acetonitrile], the figure is 1.22e+06 M⁻¹ s⁻¹.
Next, `C=CC(=O)NCC12CC(CN3C[C@H]4CC(=O)N(c5cc(C(F)(F)F)cc(C)n5)[C@@H]4C(=O)N(C)c4cccc(C)c43)(C1)C2` [Example 175, N-((3-(((3aR,11aS)-6,10-dimethyl-1-(6-methyl-4-(tri-fluoromethyl)pyr-idin-2-yl)-2,11-dioxo-1,2,3,3a,4, 10,11,11a-octa-hydro-5H-benzo [b]pyrrolo[2,3-f] [1,4]diazocin-5-yl)methyl)bicyclo [1.1.1]pentan-1-yl)-methyl)acrylamide]: 370000 M⁻¹ s⁻¹; `C=CC(=O)N1C[C@@H](F)[C@@H](n2cc(CN3C[C@H]4CC(=O)N(c5cc(C(F)(F)F)cc(C)n5)[C@@H]4C(=O)N(C)c4cccc(C)c43)cn2)C1` (single isomer, unassigned) [Example 325d]: 1.77e+06 M⁻¹ s⁻¹.
Next, `C=CC(=O)N1CC(N(C)CCCN2C[C@H]3CC(=O)N(c4cc(C(F)(F)F)cc(C)n4)[C@@H]3C(=O)N(C)c3cccc(Cl)c32)C1` [Example 138, (3aR,11aS)-5-(3-((1-acryloylazetidin-3-yl)(methyl)amino)propyl)-6-chloro-10-methyl-1-(6-methyl-4-(trifluoromethyl)pyridin-2-yl)-1,3a,4,5,10,11a-hexahydro-2H-benzo[b]pyrrolo[2,3-f][1,4]diazocine-2,11(3H)-dione]: 1.08e+06 M⁻¹ s⁻¹.
`C=CC(=O)N1CCN2CCN(CCN3C[C@H]4CC(=O)N(c5cc(C(F)(F)F)cc(C)n5)[C@@H]4C(=O)N(C)c4cccc(F)c43)CC2C1` (single isomer, unassigned) [Example 23b] yielded a Kinact/Kl of 540000 M⁻¹ s⁻¹.
`C=CC(=O)N1Cc2nc(CN3C[C@H]4CC(=O)N(c5cc(C(F)(F)F)cc(C)n5)[C@@H]4C(=O)N(C)c4cccc(Cl)c43)sc2C1` [Example 280, (3aR,11aS)-5-((5-acryloyl-5,6-dihydro-4H-pyrrolo[3,4-d]thiazol-2-yl)methyl)-6-chloro-10-methyl-1-(6-methyl-4-(trifluoromethyl)pyridin-2-yl)-1,3a,4,5,10,11a-hexahydro-2H-benzo[b]pyrrolo[2,3-f][1,4]diazocine-2,11(3H)-dione]: the Kinact/Kl turned out to be 2.54e+06 M⁻¹ s⁻¹.
The molecule `C=CC(=O)N1CC(N2CC[C@H](CCN3C[C@H]4CC(=O)N(c5cc(C(F)(F)F)cc(C)n5)[C@@H]4C(=O)N(C)c4cccc(Cl)c43)C2)C1` [Example 221, (3aR,11aS)-5-(2-((R)-1-(1-acryloylazetidin-3-yl)pyrrolidin-3-yl)ethyl)-6-chloro-10-methyl-1-(6-methyl-4-(trifluoromethyl)pyridin-2-yl)-1,3a,4,5,10,11a-hexahydro-2H-benzo[b] pyrrolo[2,3-f] [1,4]diazocine-2,11(3H)-dione] showed a Kinact/Kl of 3.03e+06 M⁻¹ s⁻¹.
Consider `C=CC(=O)N1CCC(n2cnc(CN3C[C@H]4CC(=O)N(c5cc(C(F)(F)F)cc(C)n5)[C@@H]4C(=O)N(C)c4cccc(F)c43)n2)CC1` [Example 126, (3aR,11aS)-5-((1-(1-acryloylpiperidin-4-yl)-1H-1,2,4-triazol-3-yl)methyl)-6-fluoro-10-methyl-1-(6-methyl-4-(trifluoromethyl)pyridin-2-yl)-1,3a,4,5,10,11a-hexahydro-2H-benzo[b]pyrrolo[2,3-f][1,4]diazocine-2,11(3H)-dione], for which the Kinact/Kl is 460000 M⁻¹ s⁻¹.
As to `C=CC(=O)N1CC(N2CCC(CCN3C[C@H]4CC(=O)N(c5cc(C(F)(F)F)cc(C)n5)[C@@H]4C(=O)N(C)c4cccc(F)c43)CC2)C1` [Example 215, (3aR,11aS)-5-(2-(1-(1-acryloylazetidin-3-yl)piperidin-4-yl)ethyl)-6-fluoro-10-methyl-1-(6-methyl-4-(trifluoromethyl)pyridin-2-yl)-1,3a,4,5,10,11a-hexahydro-2H-benzo[b]pyrrolo [2,3-f][1,4] diazocine-2,11 (3H)-dione], the Kinact/Kl is 1.21e+06 M⁻¹ s⁻¹.
As for `C=CC(=O)N1Cc2cc(CN3C[C@H]4CC(=O)N(c5cc(C(F)(F)F)cc(C)n5)[C@@H]4C(=O)N(C)c4cccc(Cl)c43)cnc2[C@@H]1CC#N` (racemic) [Example 292a, 2-((S/R)-6-acryloyl-3-(((3aR,11aS)-6-chloro-10-methyl-1-(6-methyl-4-(trifluoromethyl)pyridin-2-yl)-2,11-dioxo-1,2,3,3a,4,10,11,11a-octahydro-5H-benzo[b]pyrrolo[2,3-f][1,4]diazocin-5-yl)methyl)-6,7-dihydro-5H-pyrrolo[3,4-b]pyridin-7-yl)acetonitrile], the figure is 2.97e+06 M⁻¹ s⁻¹; as for `C=CC(=O)N1CCC(n2cnc(CN3C[C@H]4CC(=O)N(c5cc(C(F)(F)F)cc(C)n5)[C@@H]4C(=O)N(C)c4cccc(Cl)c43)n2)CC1` [Example 135, (3aR,11aS)-5-((1-(1-acryloylpiperidin-4-yl)-1H-1,2,4-triazol-3-yl)methyl)-6-chloro-10-methyl-1-(6-methyl-4-(trifluoromethyl)pyridin-2-yl)-1,3a,4,5,10,11a-hexahydro-2H-benzo[b]pyrrolo[2,3-f][1,4]diazocine-2,11(3H)-dione], 2e+06 M⁻¹ s⁻¹.
As for `C=CC(=O)N1CC(N2CCN(CCN3C[C@H]4CC(=O)N(c5cc(C(F)(F)F)cc(C)n5)[C@@H]4C(=O)N(C)c4cccc(F)c43)C[C@@H]2CF)C1` [Example 28, (3aR,11aS)-5-(2-((R)-4-(1-acryloylazetidin-3-yl)-3-(fluoromethyl)piperazin-1-yl)ethyl)-6-fluoro-10-methyl-1-(6-methyl-4-(trifluoromethyl)pyridin-2-yl)-1,3a,4,5,10,11a-hexahydro-2H-benzo[b]pyrrolo[2,3-f][1,4]diazocine-2,11(3H)-dione], the figure is 350000 M⁻¹ s⁻¹; as for `C=CC(=O)N1CCC[C@@H]1c1noc(CN2C[C@H]3CC(=O)N(c4cc(C(F)(F)F)cc(C)n4)[C@@H]3C(=O)N(C)c3cccc(C)c32)n1` [Example 268, (3aR,11aS)-5-((3-((R)-1-acryloylpyrrolidin-2-yl)-1,2,4-oxadiazol-5-yl)methyl)-6,10-dimethyl-1-(6-methyl-4-(trifluoromethyl)pyridin-2-yl)-1,3a,4,5,10,11a-hexahydro-2H-bez[b]pyrrolo[2,3-f][1,4]diazocine-2,11(3H)-dione], 410000 M⁻¹ s⁻¹.
Next, `C=CC(=O)N1CC[C@]12CCN(CCN1C[C@H]3CC(=O)N(c4cc(C(F)(F)F)cc(C)n4)[C@@H]3C(=O)N(C)c3cccc(F)c31)C2` (racemic) [Example 21a, (3aR,11aS)-5-(2-((S/R)-1-acryloyl-1,6-diazaspiro[3.4]octan-6-yl)ethyl)-6-fluoro-10-methyl-1-(6-methyl-4-(trifluoromethyl)pyridin-2-yl)-1,3a,4,5,10,11a-hexahydro-2H-benzo[b]pyrrolo[2,3-f][1,4]diazocine-2, 11(3H)-dione]: 54000 M⁻¹ s⁻¹; `C/C=C(\CN(C)C)C(=O)N1CC(OCCCN2C[C@H]3CC(=O)N(c4cc(C(F)(F)F)cc(C)n4)[C@@H]3C(=O)N(C)c3cccc(F)c32)C1` [Example 80, (3aR,11aS)-5-(3-((1-((E)-2-((dimethylamino)methyl)but-2-enoyl)azetidin-3-yl)oxy)propyl)-6-fluoro-10-methyl-1-(6-methyl-4-(trifluoromethyl)pyridin-2-yl)-1,3a,4,5,10,11a-hexahydro-2H-benzo[b]pyrrolo[2,3-f][1,4]diazocine-2,11(3H)-dione]: 810000 M⁻¹ s⁻¹.
